# Reference: ChEMBL document CHEMBL5096151, “Phytocannabinoid Pharmacology: Medicinal Properties of Cannabis sativa Constituents Aside from the "Big Two"” (J Nat Prod, 2021)
# Tests used:
# [1] = target: T1, Transient receptor potential cation channel subfamily V member 1 (Homo sapiens, UniProt Q8NER1); assay: Agonist activity at ionomycin-stimulated TRPV1 (unknown origin) activation
# [2] = target: T1, Transient receptor potential cation channel subfamily V member 1; assay: Agonist activity at ionomycin-stimulated TRPV1 (unknown origin) activation assessed as efficacy relative to control
# [3] = target: T1, Transient receptor potential cation channel subfamily V member 1; assay: Agonist activity at ionomycin-stimulated TRPV1 (unknown origin) channel desensitization in presence of capsaicin
# [4] = target: T2, Transient receptor potential cation channel subfamily V member 2 (Homo sapiens) (UniProt Q9Y5S1); assay: Agonist activity at ionomycin-stimulated TRPV2 (unknown origin) activation assessed as efficacy relative to control
# T2 sequence (whole entry): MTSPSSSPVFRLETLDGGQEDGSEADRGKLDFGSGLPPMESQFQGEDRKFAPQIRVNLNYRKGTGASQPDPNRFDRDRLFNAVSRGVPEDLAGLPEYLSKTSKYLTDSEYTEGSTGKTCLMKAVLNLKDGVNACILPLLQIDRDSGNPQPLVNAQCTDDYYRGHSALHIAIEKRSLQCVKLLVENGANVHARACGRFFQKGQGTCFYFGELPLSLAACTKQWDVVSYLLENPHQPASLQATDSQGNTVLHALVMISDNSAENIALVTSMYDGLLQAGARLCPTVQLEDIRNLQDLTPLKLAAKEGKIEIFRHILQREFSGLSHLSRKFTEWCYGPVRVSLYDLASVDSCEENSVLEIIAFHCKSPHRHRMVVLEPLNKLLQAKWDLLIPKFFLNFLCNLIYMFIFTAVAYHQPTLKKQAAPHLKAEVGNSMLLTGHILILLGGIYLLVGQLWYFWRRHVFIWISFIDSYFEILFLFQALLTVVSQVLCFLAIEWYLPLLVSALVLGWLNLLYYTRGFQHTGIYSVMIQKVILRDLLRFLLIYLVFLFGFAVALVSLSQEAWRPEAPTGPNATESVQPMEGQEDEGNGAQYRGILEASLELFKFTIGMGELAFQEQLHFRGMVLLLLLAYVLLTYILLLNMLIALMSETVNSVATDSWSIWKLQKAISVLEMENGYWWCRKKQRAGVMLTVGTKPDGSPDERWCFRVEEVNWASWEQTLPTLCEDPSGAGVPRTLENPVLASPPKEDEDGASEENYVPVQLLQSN
# [5] = target: T3, Transient receptor potential cation channel subfamily V member 2 (Homo sapiens, UniProt Q9Y5S1); assay: Agonist activity at ionomycin-stimulated TRPV2 (unknown origin) channel desensitization in presence of lysophosphatidylcholine
# T3 sequence (Q9Y5S1 whole entry): T2 sequence (whole entry)
# [6] = target: T4, Transient receptor potential cation channel subfamily V member 3 (Homo sapiens, UniProt Q8NET8); assay: Agonist activity at ionomycin-stimulated TRPV3 (unknown origin) activation
# T4 sequence (Q8NET8 whole entry): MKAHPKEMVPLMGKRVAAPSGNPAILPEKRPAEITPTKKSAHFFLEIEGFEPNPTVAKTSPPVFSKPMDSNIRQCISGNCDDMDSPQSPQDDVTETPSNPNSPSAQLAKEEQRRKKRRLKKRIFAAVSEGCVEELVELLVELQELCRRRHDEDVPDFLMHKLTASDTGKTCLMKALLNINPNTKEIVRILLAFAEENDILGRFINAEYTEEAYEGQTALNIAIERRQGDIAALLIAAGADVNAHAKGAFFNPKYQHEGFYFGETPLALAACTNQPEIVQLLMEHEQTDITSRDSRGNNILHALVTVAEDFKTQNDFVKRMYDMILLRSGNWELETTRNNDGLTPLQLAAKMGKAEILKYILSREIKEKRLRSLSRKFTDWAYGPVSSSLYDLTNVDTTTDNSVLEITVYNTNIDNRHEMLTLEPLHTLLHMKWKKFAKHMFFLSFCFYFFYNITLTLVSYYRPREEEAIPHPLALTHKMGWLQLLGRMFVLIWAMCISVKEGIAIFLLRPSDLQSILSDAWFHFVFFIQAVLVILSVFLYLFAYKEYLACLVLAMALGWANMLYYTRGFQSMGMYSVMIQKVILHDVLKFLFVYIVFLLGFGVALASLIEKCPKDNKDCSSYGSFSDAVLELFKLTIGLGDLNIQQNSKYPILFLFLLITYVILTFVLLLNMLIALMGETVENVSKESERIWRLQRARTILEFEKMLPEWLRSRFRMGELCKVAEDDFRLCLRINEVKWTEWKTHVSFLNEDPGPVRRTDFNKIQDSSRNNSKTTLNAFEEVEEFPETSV
# [7] = target: T5, Transient receptor potential cation channel subfamily V member 3 (Homo sapiens) (UniProt Q8NET8); assay: Agonist activity at ionomycin-stimulated TRPV3 (unknown origin) activation assessed as efficacy relative to control
# T5 sequence (whole entry): T4 sequence (Q8NET8 whole entry)
# [8] = target: T4, Transient receptor potential cation channel subfamily V member 3; assay: Agonist activity at ionomycin-stimulated TRPV3 (unknown origin) channel desensitization in presence of carvacrol
# [9] = target: T6, Transient receptor potential cation channel subfamily V member 4 (Homo sapiens, UniProt Q9HBA0); assay: Agonist activity at ionomycin-stimulated TRPV4 (unknown origin) activation
# [10] = target: T6, Transient receptor potential cation channel subfamily V member 4; assay: Agonist activity at ionomycin-stimulated TRPV4 (unknown origin) activation assessed as efficacy relative to control
# [11] = target: T6, Transient receptor potential cation channel subfamily V member 4; assay: Agonist activity at ionomycin-stimulated TRPV4 (unknown origin) channel desensitization in presence of 4alphaPDD
# [12] = target: T7, Transient receptor potential cation channel subfamily A member 1 (Homo sapiens, UniProt O75762); assay: Agonist activity at TRPA1 (unknown origin) activation
# [13] = target: T7, Transient receptor potential cation channel subfamily A member 1; assay: Agonist activity at TRPA1 (unknown origin) activation assessed as efficacy relative to control; conditions: filed as agonist
# [14] = target: T7, Transient receptor potential cation channel subfamily A member 1; assay: Agonist activity at TRPA1 (unknown origin) channel desensitization in presence of isothiocyanate
# [15] = target: Transient receptor potential cation channel subfamily M member 8 (Homo sapiens, UniProt Q7Z2W7); assay: Antagonist activity at TRPM8 (unknown origin) ion channel
# [16] = target: T3, Transient receptor potential cation channel subfamily V member 2; assay: Agonist activity at ionomycin-stimulated TRPV2 (unknown origin) activation
# [17] = target: T7, Transient receptor potential cation channel subfamily A member 1; assay: Agonist activity at TRPA1 (unknown origin) channel desensitization in presence of icilin
# Cannabinoid receptor 1 [18] = target: Cannabinoid receptor 1 (Mus musculus, UniProt P47746); assay: Agonist activity at CB1 receptor in albino MF1 mouse vas deferens assessed as inhibition of electrically evoked vas deferens contraction by incubated for 13 mins followed by electrical stimulation for 2 mins; format: functional
# [19] = target: Transient receptor potential cation channel subfamily V member 5 (Homo sapiens, UniProt Q9NQA5); assay: Inhibition of TRPV5 channel (unknown origin) by Patch-clamp assay
# Cannabinoid receptor 2 [20] = target: T8, Cannabinoid receptor 2 (Homo sapiens, UniProt P34972); assay: Agonist activity at CB2 receptor (unknown origin) expressed in CHO cell membranes assessed as increase in [35S]GTPgammaS binding incubated for 60 mins by liquid scintillation spectrometry analysis; format: functional, Membrane
# [21] = target: T9, G-protein coupled receptor 55 (Homo sapiens, UniProt Q9Y2T6); assay: Antagonist activity at GPR55 (unknown origin) expressed in HEK293 cells assessed as LPI-stimulated ERK1/2 phosphorylation; format: functional, cell-based
# Cannabinoid receptor 2 [22] = target: T8, Cannabinoid receptor 2; assay: Agonist activity at human CB2 receptor transfected in CHO cells assessed as inhibition of cyclic AMP production; format: functional, cell-based
# [23] = target: 5-hydroxytryptamine receptor 1A (Rattus norvegicus, UniProt P19327); assay: Displacement of [35S]GTPgammaS from 5HT1A in Sprague-Dawley rat brainstem incubated for 60 mins by radioligand binding assay; format: tissue-based
# [24] = target: 5-hydroxytryptamine receptor 1A (Homo sapiens, UniProt P08908); assay: Displacement of [35S]GTPgammaS from 5HT1A in […] incubated for 60 mins by radioligand binding assay; format: cell-based
# Cannabinoid receptor 2 [25] = target: T8, Cannabinoid receptor 2; assay: Agonist activity at CB2 receptor (unknown origin) expressed in CHO cell membranes assessed as increase in [35S]GTPgammaS binding by measuring efficacy incubated for 60 mins by liquid scintillation spectrometry analysis relative to control; format: functional; conditions: Membrane, filed as agonist
# [26] = target: T9, G-protein coupled receptor 55; assay: Antagonist activity at GPR55 (unknown origin) expressed in HEK293 cells assessed as LPI-stimulated ERK1/2 phosphorylation by measuring efficacy relative to control; format: functional, cell-based; conditions: filed as antagonist
# [27] = target: 5-hydroxytryptamine receptor 1A (Rattus norvegicus) (UniProt P19327); assay: Displacement of [35S]GTPgammaS from 5HT1A in Sprague-Dawley rat brainstem by measuring efficacy incubated for 60 mins by radioligand binding assay relative to control; format: tissue-based
# [28] = target: 5-hydroxytryptamine receptor 1A (Homo sapiens) (UniProt P08908); assay: Displacement of [35S]GTPgammaS from 5HT1A in […] by measuring efficacy incubated for 60 mins by radioligand binding assay relative to control; format: cell-based
# Cannabinoid receptor 2 [29] = target: T8, Cannabinoid receptor 2; assay: Inhibition of human CB2 receptor; format: functional; conditions: concentration not given here
# [30] = target: Transient receptor potential cation channel subfamily V member 6 (Homo sapiens, UniProt Q9H1D0); assay: Inhibition of TRPV6 channel (unknown origin) by Patch-clamp assay
# [31] = target: T1, Transient receptor potential cation channel subfamily V member 1; assay: Agonist activity at TRPV1 (unknown origin) ion channel
# [32] = target: T7, Transient receptor potential cation channel subfamily A member 1; assay: Agonist activity at TRPA1 (unknown origin) ion channel
# Cannabinoid receptor 1 [33] = target: Cannabinoid receptor 1 (Homo sapiens, UniProt P21554); assay: Binding affinity to CB1 (unknown origin) receptor assessed as inhibition constant
# T8 sequence (P34972 whole entry): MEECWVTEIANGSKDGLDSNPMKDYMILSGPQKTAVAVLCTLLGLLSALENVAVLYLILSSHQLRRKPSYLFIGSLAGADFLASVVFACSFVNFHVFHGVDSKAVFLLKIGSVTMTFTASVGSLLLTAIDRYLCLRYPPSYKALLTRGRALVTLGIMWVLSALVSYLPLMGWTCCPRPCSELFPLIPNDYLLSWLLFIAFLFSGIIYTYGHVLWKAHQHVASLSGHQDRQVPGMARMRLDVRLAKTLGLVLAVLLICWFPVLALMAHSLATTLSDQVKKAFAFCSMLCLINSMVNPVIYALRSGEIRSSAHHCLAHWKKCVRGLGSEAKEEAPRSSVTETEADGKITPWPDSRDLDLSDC
# T6 sequence (Q9HBA0 whole entry): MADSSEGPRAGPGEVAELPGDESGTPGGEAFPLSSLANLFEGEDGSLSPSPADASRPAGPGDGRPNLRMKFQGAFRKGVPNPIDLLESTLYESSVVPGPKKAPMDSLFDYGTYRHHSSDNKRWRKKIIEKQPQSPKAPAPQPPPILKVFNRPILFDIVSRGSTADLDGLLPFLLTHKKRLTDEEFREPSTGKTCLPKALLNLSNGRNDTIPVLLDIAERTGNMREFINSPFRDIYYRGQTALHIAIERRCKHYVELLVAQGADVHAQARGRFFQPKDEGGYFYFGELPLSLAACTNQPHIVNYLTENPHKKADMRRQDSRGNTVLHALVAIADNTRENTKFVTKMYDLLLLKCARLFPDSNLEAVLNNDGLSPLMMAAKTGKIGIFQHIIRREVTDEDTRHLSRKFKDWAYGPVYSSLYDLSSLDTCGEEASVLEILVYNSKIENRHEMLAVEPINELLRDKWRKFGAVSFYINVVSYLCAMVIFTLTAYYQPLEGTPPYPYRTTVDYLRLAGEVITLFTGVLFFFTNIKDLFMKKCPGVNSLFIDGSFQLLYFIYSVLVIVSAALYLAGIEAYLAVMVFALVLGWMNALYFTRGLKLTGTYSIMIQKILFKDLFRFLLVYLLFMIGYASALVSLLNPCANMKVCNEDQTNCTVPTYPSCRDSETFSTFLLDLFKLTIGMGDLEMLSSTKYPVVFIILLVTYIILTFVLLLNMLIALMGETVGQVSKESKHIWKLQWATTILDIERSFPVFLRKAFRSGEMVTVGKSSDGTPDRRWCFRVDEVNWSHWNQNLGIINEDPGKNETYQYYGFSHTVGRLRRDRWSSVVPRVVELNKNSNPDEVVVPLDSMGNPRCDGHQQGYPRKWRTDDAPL
# T1 sequence (Q8NER1 whole entry): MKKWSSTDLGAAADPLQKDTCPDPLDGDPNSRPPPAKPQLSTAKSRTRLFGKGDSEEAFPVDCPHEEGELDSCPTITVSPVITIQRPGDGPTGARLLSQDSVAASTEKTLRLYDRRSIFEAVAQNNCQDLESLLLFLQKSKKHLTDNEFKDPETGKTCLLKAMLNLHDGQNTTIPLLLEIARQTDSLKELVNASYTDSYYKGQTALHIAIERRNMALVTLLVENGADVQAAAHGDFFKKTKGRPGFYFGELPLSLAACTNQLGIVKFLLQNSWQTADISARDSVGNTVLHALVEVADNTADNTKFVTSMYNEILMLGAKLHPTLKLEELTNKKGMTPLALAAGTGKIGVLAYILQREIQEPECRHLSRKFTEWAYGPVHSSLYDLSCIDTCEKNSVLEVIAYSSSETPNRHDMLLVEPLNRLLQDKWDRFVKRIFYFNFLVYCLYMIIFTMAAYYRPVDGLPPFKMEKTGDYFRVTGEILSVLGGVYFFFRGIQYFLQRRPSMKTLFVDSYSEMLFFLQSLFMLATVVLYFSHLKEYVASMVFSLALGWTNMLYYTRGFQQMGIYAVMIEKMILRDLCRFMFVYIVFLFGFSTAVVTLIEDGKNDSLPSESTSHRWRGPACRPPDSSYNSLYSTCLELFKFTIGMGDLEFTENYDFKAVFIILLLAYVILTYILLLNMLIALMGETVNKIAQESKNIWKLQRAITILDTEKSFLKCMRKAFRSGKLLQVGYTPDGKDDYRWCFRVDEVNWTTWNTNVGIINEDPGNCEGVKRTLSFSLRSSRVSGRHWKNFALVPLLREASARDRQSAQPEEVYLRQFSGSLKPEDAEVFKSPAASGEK
# T7 sequence (O75762 whole entry): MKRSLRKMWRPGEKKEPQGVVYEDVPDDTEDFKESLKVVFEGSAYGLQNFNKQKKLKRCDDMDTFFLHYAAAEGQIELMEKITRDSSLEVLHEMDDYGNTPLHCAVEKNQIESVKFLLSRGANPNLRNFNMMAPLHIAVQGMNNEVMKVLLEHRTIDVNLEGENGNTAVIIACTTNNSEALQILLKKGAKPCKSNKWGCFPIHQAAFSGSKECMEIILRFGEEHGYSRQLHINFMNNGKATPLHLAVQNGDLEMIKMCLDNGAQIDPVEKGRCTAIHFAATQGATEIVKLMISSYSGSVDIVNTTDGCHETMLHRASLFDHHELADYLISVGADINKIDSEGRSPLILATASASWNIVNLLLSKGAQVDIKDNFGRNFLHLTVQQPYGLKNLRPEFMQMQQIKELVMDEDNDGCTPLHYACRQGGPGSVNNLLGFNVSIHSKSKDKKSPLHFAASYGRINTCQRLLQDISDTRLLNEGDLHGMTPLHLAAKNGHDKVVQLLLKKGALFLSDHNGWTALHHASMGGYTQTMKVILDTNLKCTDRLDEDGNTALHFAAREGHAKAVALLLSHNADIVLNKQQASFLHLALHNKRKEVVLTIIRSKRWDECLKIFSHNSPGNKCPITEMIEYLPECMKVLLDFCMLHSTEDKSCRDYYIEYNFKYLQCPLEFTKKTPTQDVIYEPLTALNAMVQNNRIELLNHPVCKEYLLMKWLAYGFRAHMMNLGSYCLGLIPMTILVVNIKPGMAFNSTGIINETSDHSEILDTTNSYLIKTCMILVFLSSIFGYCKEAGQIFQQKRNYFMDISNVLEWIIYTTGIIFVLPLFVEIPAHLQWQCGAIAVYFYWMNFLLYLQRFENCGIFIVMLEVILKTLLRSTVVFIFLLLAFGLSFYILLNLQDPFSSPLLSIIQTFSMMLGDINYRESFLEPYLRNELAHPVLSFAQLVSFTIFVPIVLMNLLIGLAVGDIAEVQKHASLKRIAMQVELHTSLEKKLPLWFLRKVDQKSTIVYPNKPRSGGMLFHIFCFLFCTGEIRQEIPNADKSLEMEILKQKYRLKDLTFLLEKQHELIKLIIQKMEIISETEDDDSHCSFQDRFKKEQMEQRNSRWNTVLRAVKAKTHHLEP
# T9 sequence (Q9Y2T6 whole entry): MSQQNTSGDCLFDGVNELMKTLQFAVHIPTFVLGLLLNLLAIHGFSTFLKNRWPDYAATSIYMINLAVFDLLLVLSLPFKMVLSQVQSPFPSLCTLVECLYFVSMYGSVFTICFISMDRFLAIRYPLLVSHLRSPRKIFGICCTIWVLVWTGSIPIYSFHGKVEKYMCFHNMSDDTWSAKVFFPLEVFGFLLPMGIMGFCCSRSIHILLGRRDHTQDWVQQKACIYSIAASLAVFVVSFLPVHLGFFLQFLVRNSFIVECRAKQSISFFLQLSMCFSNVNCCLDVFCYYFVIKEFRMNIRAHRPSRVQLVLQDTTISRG
# Sequence of Transient receptor potential cation channel subfamily M member 8 (Q7Z2W7 whole entry): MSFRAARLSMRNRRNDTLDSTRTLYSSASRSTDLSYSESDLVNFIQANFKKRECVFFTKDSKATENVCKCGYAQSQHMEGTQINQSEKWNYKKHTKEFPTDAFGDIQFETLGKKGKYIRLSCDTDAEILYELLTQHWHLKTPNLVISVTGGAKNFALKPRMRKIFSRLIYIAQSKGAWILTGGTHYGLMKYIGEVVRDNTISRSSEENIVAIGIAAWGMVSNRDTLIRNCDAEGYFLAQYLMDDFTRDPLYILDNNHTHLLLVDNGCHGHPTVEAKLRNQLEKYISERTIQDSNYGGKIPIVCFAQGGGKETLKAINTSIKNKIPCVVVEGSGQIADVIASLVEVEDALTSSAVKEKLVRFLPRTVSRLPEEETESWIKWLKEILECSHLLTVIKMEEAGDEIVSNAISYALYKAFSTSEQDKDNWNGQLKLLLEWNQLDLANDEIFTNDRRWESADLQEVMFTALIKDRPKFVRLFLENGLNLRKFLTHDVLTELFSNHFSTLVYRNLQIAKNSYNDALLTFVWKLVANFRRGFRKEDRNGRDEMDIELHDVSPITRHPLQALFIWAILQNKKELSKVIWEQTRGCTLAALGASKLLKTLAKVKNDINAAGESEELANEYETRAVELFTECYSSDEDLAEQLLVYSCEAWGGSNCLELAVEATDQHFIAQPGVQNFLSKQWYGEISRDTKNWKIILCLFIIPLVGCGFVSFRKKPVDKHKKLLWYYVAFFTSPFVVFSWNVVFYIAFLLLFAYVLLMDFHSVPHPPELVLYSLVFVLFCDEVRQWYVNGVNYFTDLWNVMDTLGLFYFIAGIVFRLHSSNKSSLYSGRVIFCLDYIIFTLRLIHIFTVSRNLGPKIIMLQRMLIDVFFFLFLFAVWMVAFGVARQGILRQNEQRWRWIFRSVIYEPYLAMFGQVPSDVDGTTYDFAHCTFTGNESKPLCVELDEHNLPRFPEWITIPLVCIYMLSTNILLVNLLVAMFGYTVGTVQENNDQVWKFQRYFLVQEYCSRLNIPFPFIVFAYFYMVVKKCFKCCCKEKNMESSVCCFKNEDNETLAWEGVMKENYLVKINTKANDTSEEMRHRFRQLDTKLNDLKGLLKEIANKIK
# Sequence of 5-hydroxytryptamine receptor 1A (Homo sapiens) (P08908 whole entry): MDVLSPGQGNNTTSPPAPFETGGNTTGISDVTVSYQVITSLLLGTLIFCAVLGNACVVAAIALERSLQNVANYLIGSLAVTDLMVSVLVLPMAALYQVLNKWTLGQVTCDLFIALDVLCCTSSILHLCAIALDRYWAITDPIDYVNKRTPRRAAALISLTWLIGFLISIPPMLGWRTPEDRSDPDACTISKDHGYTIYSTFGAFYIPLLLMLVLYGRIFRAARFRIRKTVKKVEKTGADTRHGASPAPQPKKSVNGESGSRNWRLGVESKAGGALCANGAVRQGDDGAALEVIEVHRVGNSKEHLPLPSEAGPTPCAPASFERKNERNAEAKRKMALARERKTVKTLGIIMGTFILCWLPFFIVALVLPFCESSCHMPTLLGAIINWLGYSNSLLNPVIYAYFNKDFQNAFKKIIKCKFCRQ
SMILES,EC50 [1] [µM],IC50 [3] [µM],IC50 [5] [nM],EC50 [6] [µM],IC50 [8] [µM],EC50 [9] [µM],Efficacy [10] [%],IC50 [11] [µM],EC50 [12] [nM],Efficacy [13] [%],IC50 [14] [nM],IC50 [15] [µM],Efficacy ([2]; filed as agonist) [%],EC50 [16] [µM],Efficacy ([4]; filed as agonist) [%],Efficacy ([7]; filed as agonist) [%],IC50 [17] [nM],other results
CCCCCc1cc(O)c2c(c1)OC(C)(CCC=C(C)C)C=C2 (stereo not drawn) [CANNABICHROMENE],24.2,> 50,6500,1.9,201,0.6,23,9.9,90,119,370,40.7,,,,,,Efficacy [2]: < 10%; Efficacy [4]: < 10%; Efficacy [7]: 20%
CCCc1cc(O)c2c(c1)OC(C)(C)c1ccc(C)cc1-2,,11.9,2200,3.5,1.6,7.3,37,4,200,123,170,,50,3.1,79,78,500,
CCCc1cc(O)c2c(c1)OC(C)(C)[C@@H]1CCC(C)=C[C@@H]21 [TETRAHYDROCANNABIVARIN],1.5,1.3,800,3.8,3,6.4,,3.2,1500,243,3070,0.02,68,4.1,74,72,870,EC50 (Cannabinoid receptor 1 [18]): 12.7 µM; IC50 [19]: 4.8 µM; EC50 (Cannabinoid receptor 2 [20]): 98 nM; EC50 [21]: 880 nM; EC50 (Cannabinoid receptor 2 [22]): 38 nM; EC50 [23]: 5.4 nM; EC50 [24]: 28 nM; Efficacy (Cannabinoid receptor 2 [25]): 40%; Efficacy [26]: 61%; Efficacy [27]: 35%; Efficacy [28]: 134%; inhibition (Cannabinoid receptor 2 [29]): 0.143%; Efficacy ([10]; filed as agonist): 60%; IC50 [30]: 9.4 µM; EC50 [31]: 200 nM; EC50 [32]: 70 nM; Ki (Cannabinoid receptor 1 [33]): 1000 nM
